The text below walks through data of patent US20240262844A1, “PYRIDINIUM SALTS AND METHODS OF USE” (UNIVERSITY OF WYOMING, priority 2023, published 2024).

Several values for one entry are separate records, joined by “and”; a condition that tells them apart may be missing. Identical values can stand only once. Counter-ions that a name gives are not always drawn.

In one assay the target is T1, thioredoxin (11.6 kDa) (Escherichia coli, UniProt P0AA25).
T1 construct: purchased Sigma Aldrich; host or cells: E. coli
As to the kind of experiment: Photochemical labeling of thioredoxin (LC/MS, MS-MS). The class given is biochemical. As for the experimental part:
(§1) General Procedure B: Photochemical Irradiation of Peptides and Proteins: To a 2 mL Pyrex LC/MS vial (Thermo model #03-391-39) were sequentially added solutions containing the desired biomolecule, glutathione (GSH), pyridinium salt, and ammonium acetate (NH4OAc). The resulting solution was diluted to a final volume of 500 μL and then sparged using nitrogen for a minimum of 30 minutes prior to irradiation. The actively sparging solution was then placed in an EvoluChem™ PhotoRedOx Box photoreactor that was equipped with a Kessil, PR160 427 nm LED Lamp and was then irradiated (100% lamp intensity) for the designated time at room temperature while maintaining active sparging. The resultant reaction mixture was then analyzed directly by LC/MS. Analysis of labeling outcomes using LC/MS was performed either by extracted ion chromatogram intensities (method A) or by integrating the area under the peaks associated with peptide content (method B). These values were totaled, and estimated percentages were assigned according to relative intensities of peaks or ion counts.
Labeling of Thioredoxin with Pyridinium Salt 2a (Thioredoxin-2a Conjugate). […] The reaction mixture was directly analyzed by LC/MS using method A and was estimated to have proceeded with 93% conversion and a 14.5:1 mono:di labeled ratio and 3% glutathionylation of all protein content. […]

Another assay relates to Leuprolide (1.2 kDa). As to the kind of experiment: Photochemical labeling of leuprolide (LC/MS). The class given is biochemical. Conditions: 10 μM leuprolide, 100 μM pyridinium salt, 300 μM glutathione, 20 mM NH4OAc pH 6.9, 427 nm, 30 minutes. As for the experimental part: as §1
Labeling of Leuprolide with Pyridinium Salt 2a (Leuprolide-2a Conjugate). […] The reaction mixture was analyzed directly by LC/MS using method B and was estimated to have proceeded with 91% conversion, a >20:1 mono:di labeled ratio, and 4% of +1 label+glutathionylation. […]

T1 sequence (P0AA25 whole entry): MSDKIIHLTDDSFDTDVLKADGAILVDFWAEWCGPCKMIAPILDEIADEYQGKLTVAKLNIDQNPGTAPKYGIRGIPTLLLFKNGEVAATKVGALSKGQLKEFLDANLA

For `COC(=O)N(C)[n+]1c(C)cc(-c2ccc3cc(OC)ccc3c2)cc1C` [Pyridinium salt 2a, 1-((methoxycarbonyl)(methyl)amino)-4-(6-methoxynapthalen-2-yl)-2,6-dimethylpyridin-1-ium tetrafluoroborate], the conversion is 93% and 87% on thioredoxin (11.6 kDa) (10 μM thioredoxin, 200 μM pyridinium salt, 300 μM glutathione, 20 mM NH4OAc pH 6.9, 427 nm, 60 minutes); 91% in the assay with Leuprolide (1.2 kDa). For the same compound, the “site of tryptophan modification” value at thioredoxin (11.6 kDa) (digestion/MS-MS) is on record as “Trp-31”.
